A short description of test [1]: luciferase reporter signal suppression in cells – H4 neuroglioma cells, luminescence, dose response (AID 1990). In kind it is functional, cell-based.
Test [2] has as its system BJ. Kind of test: BJ-TERT fibroblast viability loss – cell-based, RAS-independent, luminescence, dose response (AID 1933). Type of test: functional. The conditions noted are these: Homo sapiens.
Test [3] can be described thus: Luminescence Cell-Based Dose Response HTS to Identify Inhibitors of 5'UTR Stem-Loop Driven Prion Protein mRNA Translation in H4 Neuroglioblastoma Cells. [Related pubchem assays: 1827 (Project Summary), 1813 (Primary HTS)]. In kind it is functional.
The nature of test [4]: alpha-synuclein stem-loop luciferase translation blockers – H4 neuroglioma cells, luminescence, confirmation (AID 1988). Type of test: functional, cell-based.
Test [5] relates to BJ. Kind of test: cells. Type of test: functional, cell-based. The conditions noted are these: Homo sapiens.
Test [6] has as its system BJ. Kind of test: BJ-TERT-LT-ST fibroblast viability loss – cell-based, RAS-independent, luminescence, dose response (AID 1935).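 Further: BJ fibroblasts immortalized with TERT plus LT and ST oncogenes.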 The conditions noted are these: Homo sapiens. In kind it is functional.
A short description of test [7]: DRD fibroblast viability loss – cell-based, non-viral oncogenic, luminescence, dose response (AID 1934). Type of test: functional. Conditions: Homo sapiens.
Test [8] is described as follows: A549 cell cytotoxicity, dose response, cytotoxicity control, plate reader, cherry-pick, antagonist series (AID 743412). Type of test: functional, cell-based.
Test [9] is described as follows: toxicity toward HepG2 liver cells – cell-based, plate reader, cherry-pick, antagonist series, cytotoxicity control, dose response (AID 743416). In kind it is functional.
Test [10] is described as follows: blockers of bursicon-stimulated LGR2 cAMP reporter – cell-based, HEK293, CRE-luciferase reporter, cherry pick, set 2, dose response (AID 743343).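 Further: transfected cells were stimulated with diluted bursicon conditioned medium after compound addition.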 In kind it is functional. A general note: Reporter assays use an easily measured gene product as a stand-in for the process of interest.
Test [11] is described as follows: blockade of melanocortin 4 receptor signaling – cell-based, plate reader, cherry pick, counter-screen for LGR2 antagonist project, dose response (AID 743444).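 Further: transfected HEK 293 cells stimulated with alpha-MSH peptide; potency of inhibitors of the alpha-MSH evoked signal.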 In kind it is functional. For orientation: Counterscreens check selectivity or assay interference.
A short description of test [12]: viability loss in HEK293 cells – cell-based, plate reader, cherry-picked samples, cytotoxicity control, dose response (AID 743446). Type of test: functional.
For test [13], the target named is T1, Adenosylmethionine-8-amino-7-oxononanoate aminotransferase (Mycobacterium tuberculosis, UniProt P9WQ81).
T1 sequence (P9WQ81 whole entry): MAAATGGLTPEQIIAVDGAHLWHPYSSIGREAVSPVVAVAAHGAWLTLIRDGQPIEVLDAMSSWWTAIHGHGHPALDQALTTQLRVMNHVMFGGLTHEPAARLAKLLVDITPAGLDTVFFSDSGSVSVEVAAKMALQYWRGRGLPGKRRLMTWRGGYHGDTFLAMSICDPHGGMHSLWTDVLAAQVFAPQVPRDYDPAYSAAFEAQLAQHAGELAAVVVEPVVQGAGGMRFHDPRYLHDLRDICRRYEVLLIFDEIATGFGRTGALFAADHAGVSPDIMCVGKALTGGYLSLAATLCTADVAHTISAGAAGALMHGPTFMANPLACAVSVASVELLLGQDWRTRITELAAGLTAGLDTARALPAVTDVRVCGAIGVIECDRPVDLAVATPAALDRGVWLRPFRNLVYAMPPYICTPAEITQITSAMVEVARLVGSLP
Kind of test: Mycobacterium tuberculosis BioA enzyme inhibitor Measured in Biochemical System Using Plate Reader - 2163-02_Inhibitor_Dose_CherryPick_Activity. Type of test: functional, Mycobacterium tuberculosis UT205.

The subject of another test is H9c2. Kind of test: cells. Type of test: functional, cell-based. The conditions noted are these: Rattus norvegicus, H9c2, Myocardium.
The target of test [14] is Disintegrin and metalloproteinase domain-containing protein 17 (Homo sapiens, UniProt P78536). Kind of test: inhibition of ADAM17 substrate cleavage – biochemical, quenched FRET substrate, counter-screen for ADAM10 exosite inhibitor project, dose response (AID 743253).
The target of test [15] is T2, Apoptotic protease-activating factor 1 (Homo sapiens, UniProt O14727).
T2 sequence (O14727 whole entry): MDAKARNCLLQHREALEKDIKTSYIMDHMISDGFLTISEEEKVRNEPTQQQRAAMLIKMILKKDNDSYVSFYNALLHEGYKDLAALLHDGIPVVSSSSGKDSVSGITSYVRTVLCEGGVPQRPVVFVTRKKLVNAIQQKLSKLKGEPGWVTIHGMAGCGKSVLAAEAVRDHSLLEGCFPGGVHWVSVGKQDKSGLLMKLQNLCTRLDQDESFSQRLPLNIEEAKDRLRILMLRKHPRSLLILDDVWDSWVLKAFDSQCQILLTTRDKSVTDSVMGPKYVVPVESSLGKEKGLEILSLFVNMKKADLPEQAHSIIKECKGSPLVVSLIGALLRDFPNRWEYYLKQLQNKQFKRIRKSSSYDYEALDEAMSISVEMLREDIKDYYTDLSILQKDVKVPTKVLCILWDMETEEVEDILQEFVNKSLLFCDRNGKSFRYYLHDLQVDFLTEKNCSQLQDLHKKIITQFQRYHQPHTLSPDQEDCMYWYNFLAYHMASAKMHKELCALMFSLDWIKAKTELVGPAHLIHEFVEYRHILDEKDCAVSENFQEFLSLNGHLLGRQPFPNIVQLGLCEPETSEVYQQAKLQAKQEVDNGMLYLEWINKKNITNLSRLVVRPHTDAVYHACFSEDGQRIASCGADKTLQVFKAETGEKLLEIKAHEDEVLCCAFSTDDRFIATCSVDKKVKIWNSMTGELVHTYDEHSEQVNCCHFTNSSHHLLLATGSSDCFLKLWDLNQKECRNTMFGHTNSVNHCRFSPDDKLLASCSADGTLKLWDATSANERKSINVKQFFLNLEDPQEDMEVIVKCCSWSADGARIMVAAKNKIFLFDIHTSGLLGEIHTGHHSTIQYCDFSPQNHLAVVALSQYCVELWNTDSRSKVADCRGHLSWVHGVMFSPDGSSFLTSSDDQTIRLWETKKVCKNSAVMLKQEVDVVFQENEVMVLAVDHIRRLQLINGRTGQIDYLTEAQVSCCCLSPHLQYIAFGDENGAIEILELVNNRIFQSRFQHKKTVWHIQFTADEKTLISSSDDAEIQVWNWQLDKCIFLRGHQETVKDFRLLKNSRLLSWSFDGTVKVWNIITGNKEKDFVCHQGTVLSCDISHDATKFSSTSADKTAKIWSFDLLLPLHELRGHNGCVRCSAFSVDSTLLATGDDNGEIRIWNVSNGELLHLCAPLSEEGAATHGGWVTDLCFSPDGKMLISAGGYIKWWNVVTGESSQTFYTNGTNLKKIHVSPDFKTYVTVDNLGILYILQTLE
In kind it is functional.

Test [16] is described as follows: Luminescence-based cell-based high throughput dose response assay to identify activators of the DAF-12 from the parasite S. stercoralis (ssDAF-12). In kind it is functional.
Test [17] deals with T3, Oxysterols receptor LXR-beta (Homo sapiens, UniProt P55055).
T3 sequence (P55055 whole entry): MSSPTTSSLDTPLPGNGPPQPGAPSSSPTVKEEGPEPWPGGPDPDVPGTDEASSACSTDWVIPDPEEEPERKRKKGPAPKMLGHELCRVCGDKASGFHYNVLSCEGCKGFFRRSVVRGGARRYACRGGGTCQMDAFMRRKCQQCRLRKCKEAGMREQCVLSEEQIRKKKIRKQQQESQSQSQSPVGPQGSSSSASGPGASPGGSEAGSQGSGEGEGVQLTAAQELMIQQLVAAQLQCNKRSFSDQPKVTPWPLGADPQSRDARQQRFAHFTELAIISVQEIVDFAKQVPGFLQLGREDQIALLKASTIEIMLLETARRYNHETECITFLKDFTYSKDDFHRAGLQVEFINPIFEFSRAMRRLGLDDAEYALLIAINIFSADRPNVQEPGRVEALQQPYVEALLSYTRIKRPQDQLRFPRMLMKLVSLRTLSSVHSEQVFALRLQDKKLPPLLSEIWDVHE
Kind of test: LXR agonists, Gal4 luciferase reporter, dose response, counter-screen for ssDAF-12 agonist project, cell-based, luminescence, HEK293, S. stercoralis campaign (AID 720737). Type of test: functional. Conditions: read-out: IC50 (the source's name).

Test [18] deals with Streptococcus sp. 'group A'. Kind of test: Streptococcus pyogenes SK(-)GAS viability under kanamycin – luminescence, BacTiterGlo, confirmation, counter-screen for streptokinase expression inhibitor project, dose response (AID 1900). In kind it is functional, organism-based.
In a further test the target is T4, Streptokinase A (Streptococcus pyogenes serotype M1, UniProt P10520).
T4 sequence (P10520 whole entry): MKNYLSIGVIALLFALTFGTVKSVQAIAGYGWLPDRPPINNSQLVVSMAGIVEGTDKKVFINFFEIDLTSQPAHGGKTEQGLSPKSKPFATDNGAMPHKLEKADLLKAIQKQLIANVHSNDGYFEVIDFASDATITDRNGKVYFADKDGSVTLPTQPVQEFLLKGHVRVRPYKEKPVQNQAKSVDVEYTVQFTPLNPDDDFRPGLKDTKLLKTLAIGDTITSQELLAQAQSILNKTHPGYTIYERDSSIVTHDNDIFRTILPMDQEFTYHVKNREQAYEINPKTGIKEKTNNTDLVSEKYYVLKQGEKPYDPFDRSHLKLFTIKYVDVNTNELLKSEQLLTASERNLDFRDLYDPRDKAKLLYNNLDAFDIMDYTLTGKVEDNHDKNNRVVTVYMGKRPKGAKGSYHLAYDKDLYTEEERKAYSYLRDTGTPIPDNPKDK
Kind of test: viability-normalized secreted streptokinase activity reduction – plasminogen activation absorbance, OD405, dose response (AID 1914).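 Further: secreted streptokinase activity via plasminogen activation per viability signal from cell pellet.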 Type of test: functional, Streptococcus pyogenes M1 GAS.

The next test concerns Streptococcus. Kind of test: GAS UMAA2166 growth inhibition – luminescence, BacTiterGlo, counter-screen for streptokinase expression inhibitor project, dose response (AID 1915).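 Further: potency for reduction of bacterial viability or growth.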 Type of test: functional, organism-based.
In another test the target is Paired box protein Pax-8 (Homo sapiens, UniProt Q06710). Kind of test: PAX8 transcriptional activity inhibition in RMG-I – RMG-I cells, luciferase, cherry-pick, dose response (AID 687027).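 Further: luciferase reporter driven by Pax8 target thyroperoxidase promoter measured by SteadyGlo luminescence.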 Type of test: functional, cell-based.
The nature of test [19]: OVCAR-3 cell viability loss – plate reader, dry powder samples, PAX8 inhibitor project, dose response (AID 743044). In kind it is functional, cell-based.
Test [20] is described as follows: IGROV1 cell killing – plate reader, dry powder samples, PAX8 inhibitor project, dose response (AID 743043). Type of test: functional, cell-based. Conditions: IGROV-1.
A short description of test [21]: general cell-killing toxicity readout – plate reader, dry powder samples, cytotoxicity control for PAX8 inhibitor project, dose response (AID 743021). In kind it is functional, cell-based.
Test [22] is described as follows: OVCAR8 cell viability loss – plate reader, dry powder samples, PAX8 project, dose response (AID 743197). Type of test: functional, cell-based. Conditions: OVCAR-8.

Activity calls are given as the source filed them.

Sequence of Paired box protein Pax-8 (Q06710 whole entry): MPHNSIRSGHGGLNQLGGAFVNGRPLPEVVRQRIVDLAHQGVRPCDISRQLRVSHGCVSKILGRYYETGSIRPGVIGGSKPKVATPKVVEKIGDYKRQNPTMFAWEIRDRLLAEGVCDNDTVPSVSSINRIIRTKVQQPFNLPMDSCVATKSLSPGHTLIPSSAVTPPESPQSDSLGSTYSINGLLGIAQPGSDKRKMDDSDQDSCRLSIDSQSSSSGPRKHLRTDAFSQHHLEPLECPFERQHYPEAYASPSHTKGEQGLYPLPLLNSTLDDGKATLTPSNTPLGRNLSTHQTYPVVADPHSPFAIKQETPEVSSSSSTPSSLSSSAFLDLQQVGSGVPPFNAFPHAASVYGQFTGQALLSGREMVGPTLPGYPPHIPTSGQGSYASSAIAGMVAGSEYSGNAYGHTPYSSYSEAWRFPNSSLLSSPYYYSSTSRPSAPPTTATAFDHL
Sequence of Disintegrin and metalloproteinase domain-containing protein 17 (P78536 whole entry, the tested form may be a part): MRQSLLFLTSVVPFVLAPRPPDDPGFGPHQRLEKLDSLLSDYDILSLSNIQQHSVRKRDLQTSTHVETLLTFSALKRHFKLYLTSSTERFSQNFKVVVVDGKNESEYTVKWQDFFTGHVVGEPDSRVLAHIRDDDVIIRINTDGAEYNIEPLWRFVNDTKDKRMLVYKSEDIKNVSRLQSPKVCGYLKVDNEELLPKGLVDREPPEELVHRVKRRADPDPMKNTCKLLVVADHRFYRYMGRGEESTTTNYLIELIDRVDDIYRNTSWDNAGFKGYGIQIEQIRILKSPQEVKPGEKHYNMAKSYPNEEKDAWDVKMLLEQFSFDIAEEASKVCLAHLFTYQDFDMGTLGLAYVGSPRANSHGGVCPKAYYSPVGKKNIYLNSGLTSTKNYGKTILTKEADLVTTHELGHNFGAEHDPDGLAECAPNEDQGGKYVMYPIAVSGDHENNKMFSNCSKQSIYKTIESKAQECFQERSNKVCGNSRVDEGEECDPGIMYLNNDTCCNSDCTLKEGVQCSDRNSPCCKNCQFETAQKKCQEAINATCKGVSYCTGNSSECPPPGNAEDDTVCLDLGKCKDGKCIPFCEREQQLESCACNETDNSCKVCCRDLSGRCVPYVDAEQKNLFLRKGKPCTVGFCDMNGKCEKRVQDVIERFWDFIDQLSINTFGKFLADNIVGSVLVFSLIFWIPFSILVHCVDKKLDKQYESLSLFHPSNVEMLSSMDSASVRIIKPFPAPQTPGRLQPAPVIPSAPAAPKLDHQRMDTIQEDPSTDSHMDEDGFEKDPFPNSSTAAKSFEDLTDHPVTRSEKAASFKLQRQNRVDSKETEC

For `CCOC(=O)c1cnc(Nc2nc3ccccc3o2)nc1C`, the EC50 in test [1] was 0.382 µM (active); in the test with BJ [2] it was 11.1 µM (inconclusive); in test [3], 0.35 µM (active); in [4] it was 0.278 µM (active); in the test on BJ [5], 17 µM (active); in the test on BJ [6], > 150 µM (inconclusive). The EC50 in test [7] is 11.7 µM (active). In addition, the AC50 (in general, the concentration giving half of the maximal activity seen) in test [8] is 16.9 µM (active); in [9] it was 5.13 µM (active); in test [10], 1.11 µM (active); in test [11], 1.56 µM (active); in [12] it was 51.2 µM (active).

Regarding `CCOC(=O)c1ccc2c(c1)nc(SCc1cn3ccsc3n1)n2CC`, the AC50 in test [13] is 1.16 µM (active).

Regarding `O=C1OCCN1C(=O)[C@H]1[C@H](c2ccc([N+](=O)[O-])cc2)C(c2ccc(F)cc2)=NN1c1ccc(Br)cc1`, the IC50 (usually the concentration that inhibits the measured activity by half) in the test with H9c2 was > 79 µM (inactive); in [14], > 69.5 µM (inactive).

Take `CCOC(=O)c1c(N)sc(C(N)=O)c1C`: in test [13], the AC50 was 5.1 µM (active).

Consider `Cc1ccc(-c2nnc(CSc3nnc(COc4cccc5ccccc45)n3-c3ccccc3)o2)cc1`, for which, in test [15], the IC50 was 6.83 µM (active).

For the molecule `CCOC(=O)/C(C#N)=C/c1cn(CCOc2ccccc2)c2ccccc12`, in test [16], the IC50 is > 67.6 µM (inactive). Moreover, the EC50 in test [17] is > 67.6 µM (inactive).

With `Fc1ccc(-c2ccc3c(c2)C2CC3CCN2)cc1` (stereo not given), the AC50 in test [13] is 1.25 µM (active).

In the case of `Oc1nc2ccccc2n1C1CCN(C(CCc2ccccc2)c2nnnn2C2CCCCC2)CC1` (stereo not given), the AC50 was 15.8 µM (active) in test [8]; 30.6 µM (active) in [9]; 20.3 µM (active) in test [10]; 14.1 µM (active) in test [11]; 12.8 µM (active) in test [12].

On to `COC(=O)c1cccc(NC(=O)c2ccc(S(=O)(=O)N(C)c3ccccc3OC)cc2)c1`, for which the AC50 in [8] was 22.7 µM (active); in test [9], 28.9 µM (active); in [10] it was 6.56 µM (active); in test [11], 7.98 µM (active); in [12] it was 35.8 µM (active).

Turning to `Oc1c(Cl)cc(Cl)cc1/C=N\c1cc(C(F)(F)F)ccc1N1CCc2ccccc2C1`, the EC50 is 4.75 µM (active) in test [18], 47.7 µM (active) on Streptokinase A, 11.8 µM (active) in the test on Streptococcus and > 67.5 µM (inactive) in [17]. Besides, the IC50 in [16] was > 67.5 µM (inactive).

As for `O=C(c1ccc2c(c1)OCO2)N1CC[C@@H]2[C@H](CO)Nc3ccc(-c4ccc(F)cc4)cc3[C@@H]21`, the AC50 in test [13] was 1.4 µM (active).

As for `COc1ccc(NC(=O)Nc2ccc3c(c2)C(=O)N([C@H](C)CO)C[C@@H](C)[C@H](CN(C)Cc2ccc(C(F)(F)F)cc2)OCCCC[C@H](C)O3)cc1`, the AC50 at Paired box protein Pax-8 is 5.71 µM (active); in test [19], 20.5 µM (active); in [20] it was 23 µM (active); in test [21] it was 70 µM (active); in test [22] it was 33.1 µM (active).

Take `OC[C@@H]1[C@H](c2ccc(-c3ccc(F)cc3)cc2)[C@@H]2CN(CCC(F)(F)F)CCCCN12`: the concentration at half-maximal activity (AC50) was 34.9 µM (active) on Paired box protein Pax-8, 25.2 µM (active) in [19], 30 µM (active) in test [20] and 47.5 µM (active) in [22].
